ChEMBL document CHEMBL5505977, “Discovery of novel pyrrolo[2,3-d]pyrimidines as potent menin-mixed lineage leukemia interaction inhibitors” (Eur J Med Chem, 2024)

Tests used:
[1] = tested on: MV4-11; assay: Antiproliferative activity against human MV4-11 cells incubated for 7 days by PrestoBlue Cell Viability assay; type: functional, cell-based; details: MV4-11, 168 h
[2] = molecular target: Voltage-gated inwardly rectifying potassium channel KCNH2 (Homo sapiens, UniProt Q12809); assay: Inhibition of human ERG expressed in CHO cells by Q-patch clamp assay; type: toxicity, cell-based
Chain of Voltage-gated inwardly rectifying potassium channel KCNH2 (Q12809 whole entry): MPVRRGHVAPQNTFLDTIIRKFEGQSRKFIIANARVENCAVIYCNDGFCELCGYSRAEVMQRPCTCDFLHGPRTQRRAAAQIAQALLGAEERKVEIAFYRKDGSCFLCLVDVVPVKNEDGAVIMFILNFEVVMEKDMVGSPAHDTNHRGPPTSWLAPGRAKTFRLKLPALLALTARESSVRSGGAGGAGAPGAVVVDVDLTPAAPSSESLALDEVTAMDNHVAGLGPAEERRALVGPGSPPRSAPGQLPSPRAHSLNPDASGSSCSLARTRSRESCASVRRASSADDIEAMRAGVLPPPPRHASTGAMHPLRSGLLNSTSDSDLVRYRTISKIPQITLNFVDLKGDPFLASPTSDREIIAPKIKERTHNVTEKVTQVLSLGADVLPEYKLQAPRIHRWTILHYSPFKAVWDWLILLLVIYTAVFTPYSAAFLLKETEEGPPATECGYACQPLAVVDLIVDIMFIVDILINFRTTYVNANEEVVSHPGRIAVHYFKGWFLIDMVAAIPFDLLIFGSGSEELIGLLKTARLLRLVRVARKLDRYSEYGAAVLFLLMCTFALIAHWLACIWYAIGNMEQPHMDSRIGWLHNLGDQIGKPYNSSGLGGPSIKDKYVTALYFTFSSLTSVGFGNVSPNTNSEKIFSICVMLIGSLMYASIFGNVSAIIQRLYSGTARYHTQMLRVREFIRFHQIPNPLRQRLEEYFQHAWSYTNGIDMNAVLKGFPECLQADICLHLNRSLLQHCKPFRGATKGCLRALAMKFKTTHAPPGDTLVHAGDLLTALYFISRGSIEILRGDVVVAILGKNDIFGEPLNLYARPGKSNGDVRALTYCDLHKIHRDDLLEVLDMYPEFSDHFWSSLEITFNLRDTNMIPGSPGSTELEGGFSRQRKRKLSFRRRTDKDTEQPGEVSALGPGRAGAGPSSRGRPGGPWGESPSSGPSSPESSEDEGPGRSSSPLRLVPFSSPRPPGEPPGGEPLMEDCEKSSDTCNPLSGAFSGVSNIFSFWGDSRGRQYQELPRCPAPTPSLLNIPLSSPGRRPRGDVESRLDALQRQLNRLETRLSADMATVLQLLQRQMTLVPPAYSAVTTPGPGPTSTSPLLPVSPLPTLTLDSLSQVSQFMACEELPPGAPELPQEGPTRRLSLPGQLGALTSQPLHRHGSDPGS

[3] = tested on: MV4-11; assay: cells; details: Homo sapiens, MV4-11, 72 h
Description: Antiproliferative activity against human MV4-11 cells incubated for 72 hrs by MTT assay

[4] = tested on: HL-60; assay: Antiproliferative activity against human HL-60 cells incubated for 72 hrs by MTT assay; type: functional, cell-based; details: HL-60, 72 h
[5] = molecular target: T1, Menin (Homo sapiens, UniProt O00255); assay: Binding affinity to menin (unknown origin) incubated for 1 hr by fluorescence polarization assay
T1 sequence (O00255 whole entry): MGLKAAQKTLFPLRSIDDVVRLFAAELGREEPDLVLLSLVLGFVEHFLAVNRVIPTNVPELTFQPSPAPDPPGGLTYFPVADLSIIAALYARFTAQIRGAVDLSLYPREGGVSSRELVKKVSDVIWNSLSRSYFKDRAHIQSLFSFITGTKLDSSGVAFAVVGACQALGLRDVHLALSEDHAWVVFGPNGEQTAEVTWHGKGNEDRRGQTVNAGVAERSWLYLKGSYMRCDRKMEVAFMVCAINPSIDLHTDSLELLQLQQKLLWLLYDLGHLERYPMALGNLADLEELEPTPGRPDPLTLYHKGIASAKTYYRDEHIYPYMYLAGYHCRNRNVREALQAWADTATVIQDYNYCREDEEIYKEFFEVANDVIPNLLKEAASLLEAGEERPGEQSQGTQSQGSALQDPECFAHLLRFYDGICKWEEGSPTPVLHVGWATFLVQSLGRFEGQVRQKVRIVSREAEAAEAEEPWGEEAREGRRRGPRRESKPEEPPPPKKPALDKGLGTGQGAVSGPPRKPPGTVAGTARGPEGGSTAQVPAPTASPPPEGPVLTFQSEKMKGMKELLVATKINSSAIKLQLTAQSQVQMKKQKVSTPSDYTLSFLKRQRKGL

[6] = tested on: Pfeiffer; assay: Antiproliferative activity against human Pfeiffer cells incubated for 72 hrs by MTT assay; type: functional, cell-based
[7] = Antiproliferative activity against human NCM460 cells incubated for 72 hrs by MTT assay; type: toxicity, cell-based
[8] = tested on: Ramos; assay: Antiproliferative activity against human Ramos cells incubated for 72 hrs by MTT assay; type: functional, cell-based
[9] = tested on: MCF7; assay: Antiproliferative activity against human MCF7 cells incubated for 72 hrs by MTT assay; type: functional, cell-based; details: MCF7, 72 h
[10] = tested on: HCT-116; assay: Antiproliferative activity against human HCT-116 cells incubated for 72 hrs by MTT assay; type: functional, cell-based; details: HCT-116, 72 h
[11] = tested on: SU-DHL-6; assay: Antiproliferative activity against human SU-DHL-6 cells incubated for 72 hrs by MTT assay; type: functional, cell-based; details: SU-DHL-6, 72 h
[12] = tested on: Raji; assay: Antiproliferative activity against human Raji cells incubated for 72 hrs by MTT assay; type: functional, cell-based

Compound	IC50 [3]	IC50 [4]	IC50 [5]	also measured
CC(C)N(C)C(=O)c1cc(F)ccc1-n1cc(C2CCN(C(=O)[C@H]3NC4CCC3CC4)CC2)c2ccncc21				IC50 [1]: 0.073 µM; IC50 [2]: > 100 µM
Nc1ncnc2c1c(-c1ccc(F)cc1)cn2C1CCN(CC2CN(c3ccc(S(=O)(=O)c4ccncc4)cc3)C2)CC1	> 10 µM	> 10 µM	1.22 µM	
CC[C@H](Nc1ncnc2[nH]cnc12)c1nc2cccc(F)c2c(=O)n1-c1ccccc1 [IDELALISIB]	> 10 µM	> 10 µM		IC50 [6]: > 10 µM; IC50 at 72 h [7]: > 10 µM; IC50 [8]: > 10 µM; IC50 [9]: > 10 µM; IC50 [10]: > 10 µM; IC50 [11]: 0.1 µM; IC50 [12]: > 10 µM

The remaining compounds from weak to strong by IC50 [3], led by results:

IC50 [3]	IC50 [4]	IC50 [5]	Compound	also measured
1.94 µM	> 10 µM	1.04 µM	Nc1ncnc2c1c(-c1ccc(F)cc1)cn2C1CCN(CC2CN(c3ccc(S(=O)(=O)C4CCCC4)cc3)C2)CC1	
1.35 µM	> 10 µM	1.14 µM	CC(C)(C)OC(=O)N1CC(S(=O)(=O)c2ccc(N3CC(CN4CCC(n5cc(-c6ccc(F)cc6)c6c(N)ncnc65)CC4)C3)cc2)C1	
